The results in this text go back to patent US20260184708A1, “PYRIDAZINONES AND METHODS OF USE THEREOF” (GFB (ABC), LLC, priority 2017, published 2026).

The experiment concerns the target T1, TRPC5 (Homo sapiens, UniProt Q9UL62).
T1 construct: expressed in transfected cells; host or cells: HEK 293
T1 sequence (Q9UL62 1-973): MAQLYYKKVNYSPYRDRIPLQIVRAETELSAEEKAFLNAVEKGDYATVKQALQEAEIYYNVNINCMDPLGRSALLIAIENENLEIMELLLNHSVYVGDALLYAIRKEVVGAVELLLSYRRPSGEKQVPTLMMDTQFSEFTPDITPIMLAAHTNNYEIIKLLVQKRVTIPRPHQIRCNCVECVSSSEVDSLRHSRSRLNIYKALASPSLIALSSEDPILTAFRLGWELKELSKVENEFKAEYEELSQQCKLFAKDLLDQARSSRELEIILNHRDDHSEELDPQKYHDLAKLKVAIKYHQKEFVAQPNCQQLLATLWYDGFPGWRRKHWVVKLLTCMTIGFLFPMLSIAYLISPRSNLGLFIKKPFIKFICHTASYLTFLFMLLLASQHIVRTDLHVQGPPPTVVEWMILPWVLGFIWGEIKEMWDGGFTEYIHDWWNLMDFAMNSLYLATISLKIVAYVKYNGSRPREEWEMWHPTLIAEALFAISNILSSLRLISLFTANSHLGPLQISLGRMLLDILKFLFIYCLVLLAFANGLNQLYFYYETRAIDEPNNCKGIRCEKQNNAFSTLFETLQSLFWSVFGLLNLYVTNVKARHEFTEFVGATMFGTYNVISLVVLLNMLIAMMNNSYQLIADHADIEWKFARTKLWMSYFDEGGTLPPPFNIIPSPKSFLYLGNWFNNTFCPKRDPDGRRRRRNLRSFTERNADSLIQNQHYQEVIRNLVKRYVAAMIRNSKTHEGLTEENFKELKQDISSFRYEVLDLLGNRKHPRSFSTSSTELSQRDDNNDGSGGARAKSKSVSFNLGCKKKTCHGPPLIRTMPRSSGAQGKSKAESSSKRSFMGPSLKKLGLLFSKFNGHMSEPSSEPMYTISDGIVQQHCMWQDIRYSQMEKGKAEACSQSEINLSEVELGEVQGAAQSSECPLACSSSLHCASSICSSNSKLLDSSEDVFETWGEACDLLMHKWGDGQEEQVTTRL
Briefly: TRPC5 automated patch clamp assay (Qpatch), current block after rosiglitazone stimulation. The conditions noted are these: HEK293 cells overexpressing TRPC5, rosiglitazone stimulation. It is filed as cell-based. In short, it runs like this:
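HEK 293 cells expressing human TRPC5, whole-cell QPatch recording; 1 μM buffered free internal Ca2+, external pH 7.4. Ramps −100 to +100 mV over 300 ms every 10 s from −60 mV holding; channel activated by Rosiglitazone (30 uM) after ≥60 s control. IC50 from Hill fit.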
In general terms: Patch clamp records ionic current or voltage across a cell membrane.

Where [1] appears, read: Table 4, 80 mV, read-out: TRPC5_QP_ XC50_80.
Where [2] appears, read: Table 4, 100 mV, read-out: TRPC5_QP_ XC50_100.
[3] abbreviates: 80 mV, read-out: TRPC5_QP XC50_80.
The mark [4] stands for this setting: 100 mV, read-out: TRPC5_QP XC50_100.
Where [5] appears, read: Table 5, 80 mV, read-out: TRPC5_QP_ XC50_80.
[6] abbreviates: Table 5, 100 mV, read-out: TRPC5_QP_ XC50_100.
The mark [7] stands for this setting: Table 3, 80 mV, read-out: TRPC5_QP_ XC50_80.
Where [8] appears, read: Table 3, 100 mV, read-out: TRPC5_QP_ XC50_100.

Where two headings read alike, the source gives them in different places.

For the compound `Cc1ccccc1C(C)N1CCN(c2cn[nH]c(=O)c2Cl)CC1=O` (stereo not drawn), the IC50 under setting [1] fell in the range of 1e-05 to 1 µM and the IC50 under setting [2] was in the range of 1e-05 to 1 µM. For the compound `Cc1ccccc1CN1CCN(c2cn[nH]c(=O)c2)CC1`, the IC50 is, setting by setting: under setting [3], 10 to 500 µM; under setting [4], 10 to 500 µM.

For the compound `CCc1cn[nH]c(=O)c1N1CCN(Cc2ccc(F)cc2C)CC1`, the IC50 reads like this: under setting [5], 1 to 5 µM; under setting [6], 1 to 5 µM. Turning to `Cc1cccnc1CN1CCN(c2cn[nH]c(=O)c2Cl)CC1`, the IC50 by setting is: under setting [1], 5 to 10 µM; under setting [2], 5 to 10 µM.

Regarding `Cc1n[nH]c(=O)c(Cl)c1N1CCN(Cc2ccccc2C(F)(F)F)C(=O)C1`, the IC50 is 5 to 10 µM under setting [5] and 5 to 10 µM under setting [6]. On to `Cc1ccccc1CN1CCN(c2cn[nH]c(=O)c2C(C)C)CC1=O`, for which the IC50 runs as follows: under setting [1], 1 to 5 µM; under setting [2], 1 to 5 µM. Take `Cc1cc(F)ccc1CN1CCN(c2cn[nH]c(=O)c2Cl)C(C)C1` (stereo not drawn): the IC50 under setting [1] is 1 to 5 µM and the IC50 under setting [2] fell in the range of 1 to 5 µM. With `COc1cc(F)ccc1CN1CCN(c2cn[nH]c(=O)c2Cl)CC1=O` [drawing 772], the IC50 under setting [5] lay within 1 to 5 µM and the IC50 under setting [6] fell in the range of 1 to 5 µM. Regarding `Cn1ccnc1CN1CCN(c2cn[nH]c(=O)c2Br)CC1`, the IC50 under setting [7] lay in the range of 10 to 500 µM and the IC50 under setting [8] lay within 10 to 500 µM.

Consider `Cc1ccccc1CN1CCN(c2cn[nH]c(=O)c2OC2CCCC2)CC1=O`, for which the IC50 reads like this: under setting [7], 5 to 10 µM; under setting [8], 5 to 10 µM. Turning to `CCc1c(N2CCN(Cc3ccccc3C)C(=O)C2)cn[nH]c1=O`, the IC50 lay in the range of 5 to 10 µM under setting [1] and 5 to 10 µM under setting [2]. As for `O=c1[nH]ncc(N2CC3(CN(Cc4ccccc4)C3)C2)c1Br`, the IC50 lay in the range of 10 to 500 µM under setting [7] and 10 to 500 µM under setting [8]. In the case of `O=C1CN(c2c(Cl)cn[nH]c2=O)CCN1Cc1cccc(OC(F)(F)F)c1`, the IC50 lay within 10 to 500 µM under setting [5] and 10 to 500 µM under setting [6]. On to `O=c1[nH]ncc(N2CCCNCC2)c1Br`, for which the IC50 lay in the range of 10 to 500 µM under setting [7] and 10 to 500 µM under setting [8]. For the compound `Cc1cc(C(F)(F)F)ccc1CN1CCN(c2cn[nH]c(=O)c2Cl)CC1`, the IC50 under setting [1] lay in the range of 10 to 500 µM and the IC50 under setting [2] is 10 to 500 µM. `O=C1CN(c2cn[nH]c(=O)c2Cl)CCN1Cc1cccc(-c2ccccc2)c1`: the IC50 is, setting by setting: under setting [1], 10 to 500 µM; under setting [2], 10 to 500 µM. On to `O=C1CN(c2c(Cl)cn[nH]c2=O)CCN1Cc1ccc(OC(F)(F)F)cc1`, for which the IC50 under setting [5] was 10 to 500 µM and the IC50 under setting [6] was 10 to 500 µM. As to `Cc1ccccc1CN1CCN(c2cn[nH]c(=O)c2C)CC1=O`, the IC50 under setting [7] is 5 to 10 µM and the IC50 under setting [8] fell in the range of 5 to 10 µM. Take `O=c1[nH]ncc(N2CCN(Cc3c(F)cccc3F)CC2)c1Cl`: the IC50 under setting [7] fell in the range of 1 to 5 µM and the IC50 under setting [8] lay within 1 to 5 µM. On to `Cc1ccccc1CN1CCN(c2cn[nH]c(=O)c2C#CC2CC2)CC1=O`, for which the IC50 was in the range of 10 to 500 µM under setting [7] and 10 to 500 µM under setting [8].

In the case of `CS(=O)(=O)N1CCN(c2cn[nH]c(=O)c2Br)CC1`, the IC50 under setting [3] was 10 to 500 µM and the IC50 under setting [4] fell in the range of 10 to 500 µM. In the case of `Cc1ccccc1[C@@H](C)N1CCN(c2cn[nH]c(=O)c2Cl)CC1`, the IC50 reads like this: under setting [1], 1 to 5 µM; under setting [2], 1 to 5 µM.

Regarding `Cc1ccccc1C(C)N1CCN(c2cn[nH]c(=O)c2Br)CC1` (stereo not drawn), the IC50 under setting [7] is 1 to 5 µM and the IC50 under setting [8] fell in the range of 1 to 5 µM. Take `O=C1CN(c2cn[nH]c(=O)c2Cl)CCN1Cc1ccc(Cl)cc1`: the IC50 by setting is: under setting [5], 1 to 5 µM; under setting [6], 5 to 10 µM. The corresponding values for `Cn1nc(CN2CCN(c3cn[nH]c(=O)c3Cl)CC2)c2ccccc21` are 5 to 10 µM and 10 to 500 µM. The corresponding values for `CC[C@@H](c1ccccc1)N1CCN(c2cn[nH]c(=O)c2Cl)CC1` are 1 to 5 µM and 1 to 5 µM. As for `Cc1ccccc1CN1CCN(c2cn[nH]c(=O)c2Br)CC1C` (stereo not drawn) [drawing 651], the IC50 under setting [8] is 10 to 500 µM. Regarding `CS(=O)(=O)c1ccccc1CN1CCN(c2cn[nH]c(=O)c2Cl)CC1`, the IC50 was 5 to 10 µM under setting [5] and 5 to 10 µM under setting [6]. Regarding `O=C1CN(c2c(Cl)cn[nH]c2=O)CCN1Cc1ccc(F)cc1F`, the IC50 under setting [5] lay in the range of 10 to 500 µM and the IC50 under setting [6] was 10 to 500 µM.
